These are literature values, as cited in US20060094692A1, “Pharmaceutical formulations of camptothecins and process for making same” (BioNumerik Pharmaceuticals, Inc., priority 2004, published 2006).

For this data set the following is noted: fraction of the potency of the lactone form.

With `CC[C@@](O)(C(=O)O)c1cc2n(c(=O)c1CO)Cc1cc3ccccc3nc1-2` [carboxylate form of CPT], the “antitumor potency relative to the lactone form of CPT” value is “approximately one-tenth or less”.
